# Experiments:
# Assay in all cases: Kinase panel, CaNDY 1 µM
# Type in all cases: biochemical
# Conditions in all cases: CaNDY 1 µM relative to DMSO
# CDK2/CycA2 = target: T1, CDK2/CycA2 (Homo sapiens, UniProt P24941)
# T1 construct: purchased Carna Biosciences
# Description: (§1) Detailed information on the assay conditions is available on the website of Carna Biosciences (http://www.carnabio.com/english/index.html; Kobe, Japan). In brief, full-length human recombinant kinases were expressed using a baculovirus expression system as amino-terminal GST-fusion proteins, and purified by glutathione-Sepharose chromatography. The GenBank accession numbers of DYRK1A, DYRK1B, DYRK2, and DYRK3 were NP_001387.2, NP_004705.1, NP_003574.1, and NP_003573.2. Kinase activities were evaluated by Off-chip Mobility Shift Assay after reaction of 1 μM of the substrate DYRKtide-F with ATP (25 μM for DYRK1A, 50 μM for DYRK1B, 10 μM for DYRK2, and 5 μM for DYRK3). For each compound, a DMSO solution was diluted in assay buffer to yield a final concentration of 1% DMSO. After incubation for one hour at room temperature, substrate phosphorylation was analyzed by electrophoretic separation of the substrate and products using a Caliper LC3000 platform (Caliper Life Sciences, Mountain View, CA, USA). The phosphorylated product (P)/(P + substrate) ratio was calculated at each concentration of each small molecule and the percent inhibition was expressed relative to a control assay in the absence of the small molecule. […] The IC50 of each compound was calculated by interpolation on a log-concentration-response curve fitted with a four-parameter logistic equation.
# (§2) All kinase assays were carried out at Carna Biosciences. The inhibitory map was made with Kinome Render[36].
# p38δ = target: T2, p38δ (Homo sapiens, UniProt O15264)
# T2 construct: purchased Carna Biosciences
# Description: as §1, §2
# PDGFRα = target: T3, PDGFRα (Homo sapiens, UniProt P16234)
# T3 construct: purchased Carna Biosciences
# T3 sequence (P16234 24-1089): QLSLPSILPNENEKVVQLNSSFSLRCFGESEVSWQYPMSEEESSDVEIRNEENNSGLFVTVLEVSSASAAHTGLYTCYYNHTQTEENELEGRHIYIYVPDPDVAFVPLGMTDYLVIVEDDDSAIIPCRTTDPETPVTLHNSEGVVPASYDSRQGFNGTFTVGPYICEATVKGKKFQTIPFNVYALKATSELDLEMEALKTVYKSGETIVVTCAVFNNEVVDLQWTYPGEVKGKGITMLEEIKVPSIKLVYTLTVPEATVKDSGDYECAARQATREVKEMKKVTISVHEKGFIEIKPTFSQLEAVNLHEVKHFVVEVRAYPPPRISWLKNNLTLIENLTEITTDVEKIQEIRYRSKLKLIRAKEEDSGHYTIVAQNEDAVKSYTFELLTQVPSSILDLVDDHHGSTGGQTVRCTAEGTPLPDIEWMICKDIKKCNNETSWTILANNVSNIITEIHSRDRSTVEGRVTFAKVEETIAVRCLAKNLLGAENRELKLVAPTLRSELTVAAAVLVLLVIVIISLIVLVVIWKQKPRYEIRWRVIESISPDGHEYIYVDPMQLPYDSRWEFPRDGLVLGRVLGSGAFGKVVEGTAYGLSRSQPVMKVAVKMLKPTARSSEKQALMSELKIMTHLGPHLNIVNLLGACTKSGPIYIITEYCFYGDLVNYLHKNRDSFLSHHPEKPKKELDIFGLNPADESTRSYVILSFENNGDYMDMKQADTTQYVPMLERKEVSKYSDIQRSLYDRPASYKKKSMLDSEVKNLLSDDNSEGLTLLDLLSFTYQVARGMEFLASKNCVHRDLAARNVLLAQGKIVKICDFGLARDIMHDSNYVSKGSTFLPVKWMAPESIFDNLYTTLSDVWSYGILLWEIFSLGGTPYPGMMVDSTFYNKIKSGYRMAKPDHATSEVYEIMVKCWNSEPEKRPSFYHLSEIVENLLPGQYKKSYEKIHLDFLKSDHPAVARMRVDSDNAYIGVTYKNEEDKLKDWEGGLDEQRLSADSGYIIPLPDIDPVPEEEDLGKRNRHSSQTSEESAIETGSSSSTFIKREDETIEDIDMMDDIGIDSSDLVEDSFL
# Description: as §1, §2
# JAK3 = target: T4, JAK3 (Homo sapiens, UniProt P52333)
# T4 construct: purchased Carna Biosciences
# Description: as §1, §2
# FGFR3(K650M) = target: T5, FGFR3(K650M) (Homo sapiens, UniProt P22607, K650M)
# T5 construct: purchased Carna Biosciences
# Description: as §1, §2
# PKR = target: T6, PKR (Homo sapiens, UniProt P19525)
# T6 construct: purchased Carna Biosciences
# T6 sequence (P19525 whole entry): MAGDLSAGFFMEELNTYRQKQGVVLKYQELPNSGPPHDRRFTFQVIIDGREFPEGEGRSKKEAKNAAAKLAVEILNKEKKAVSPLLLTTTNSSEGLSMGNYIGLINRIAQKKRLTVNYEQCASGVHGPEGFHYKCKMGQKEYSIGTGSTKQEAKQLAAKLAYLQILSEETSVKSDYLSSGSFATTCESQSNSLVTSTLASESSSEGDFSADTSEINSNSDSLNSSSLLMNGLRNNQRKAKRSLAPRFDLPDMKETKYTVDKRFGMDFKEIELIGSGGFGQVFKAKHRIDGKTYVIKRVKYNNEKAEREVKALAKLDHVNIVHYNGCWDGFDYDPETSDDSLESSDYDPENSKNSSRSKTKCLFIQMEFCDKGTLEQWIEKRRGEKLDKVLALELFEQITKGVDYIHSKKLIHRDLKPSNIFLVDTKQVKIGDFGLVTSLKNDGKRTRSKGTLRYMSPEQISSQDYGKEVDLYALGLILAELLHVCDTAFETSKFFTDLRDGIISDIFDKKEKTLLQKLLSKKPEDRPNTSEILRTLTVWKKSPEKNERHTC
# Description: as §1, §2
# CDK4/CycD3 = target: T7, CDK4/CycD3 (Homo sapiens, UniProt P11802)
# T7 construct: purchased Carna Biosciences
# Description: as §1, §2
# NEK6 = target: T8, NEK6 (Homo sapiens, UniProt Q9HC98)
# T8 construct: purchased Carna Biosciences
# T8 sequence (Q9HC98 whole entry): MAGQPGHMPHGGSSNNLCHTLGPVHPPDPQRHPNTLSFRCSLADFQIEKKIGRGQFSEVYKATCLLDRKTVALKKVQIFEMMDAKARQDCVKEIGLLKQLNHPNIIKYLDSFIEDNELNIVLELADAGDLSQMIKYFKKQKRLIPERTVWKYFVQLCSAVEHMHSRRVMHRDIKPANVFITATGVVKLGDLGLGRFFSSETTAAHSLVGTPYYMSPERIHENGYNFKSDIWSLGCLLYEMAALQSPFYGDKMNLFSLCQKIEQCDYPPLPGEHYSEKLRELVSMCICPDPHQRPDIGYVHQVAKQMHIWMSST
# Description: as §1, §2
# LCK = target: T9, LCK (Homo sapiens, UniProt P06239)
# T9 construct: purchased Carna Biosciences
# Description: as §1, §2
# RET(Y791F) = target: T10, RET(Y791F) (Homo sapiens, UniProt P07949, Y791F)
# T10 construct: purchased Carna Biosciences
# Description: as §1, §2
# MAP3K3_Cascade = target: T11, MAP3K3_Cascade (Homo sapiens, UniProt Q99759)
# T11 construct: purchased Carna Biosciences
# T11 sequence (Q99759 whole entry): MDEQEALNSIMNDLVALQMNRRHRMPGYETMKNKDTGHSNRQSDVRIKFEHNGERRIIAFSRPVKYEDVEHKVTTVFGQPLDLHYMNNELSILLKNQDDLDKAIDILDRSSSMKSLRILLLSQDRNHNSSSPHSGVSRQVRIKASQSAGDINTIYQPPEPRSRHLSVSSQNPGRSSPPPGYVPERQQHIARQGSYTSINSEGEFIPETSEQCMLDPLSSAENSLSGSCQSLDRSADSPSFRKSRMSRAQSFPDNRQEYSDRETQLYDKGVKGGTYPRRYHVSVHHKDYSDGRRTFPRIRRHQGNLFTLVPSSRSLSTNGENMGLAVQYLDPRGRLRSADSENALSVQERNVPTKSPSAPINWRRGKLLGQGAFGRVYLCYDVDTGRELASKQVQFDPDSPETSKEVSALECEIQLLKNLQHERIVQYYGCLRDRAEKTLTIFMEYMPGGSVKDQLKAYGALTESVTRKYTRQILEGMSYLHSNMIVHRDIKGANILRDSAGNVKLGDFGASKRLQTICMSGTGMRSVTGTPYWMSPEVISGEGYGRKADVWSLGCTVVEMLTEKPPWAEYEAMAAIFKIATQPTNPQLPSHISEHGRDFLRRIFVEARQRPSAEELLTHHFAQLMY
# Description: as §1, §2
# MER = target: T12, MER (Homo sapiens, UniProt Q12866)
# T12 construct: purchased Carna Biosciences
# Description: as §1, §2
# SPHK1 = target: T13, SPHK1 (Homo sapiens, UniProt Q9NYA1)
# T13 construct: purchased Carna Biosciences
# Description: as §1, §2
# PKD2 = target: T14, PKD2 (Homo sapiens, UniProt Q9BZL6)
# T14 construct: purchased Carna Biosciences
# Description: as §1, §2
# CDC2/CycB1 = target: T15, CDC2/CycB1 (Homo sapiens, UniProt P06493)
# T15 construct: purchased Carna Biosciences
# Description: as §1, §2
# SRC = target: T16, SRC (Homo sapiens, UniProt P12931)
# T16 construct: purchased Carna Biosciences
# Description: as §1, §2
# SGK2 = target: T17, SGK2 (Homo sapiens, UniProt Q9HBY8)
# T17 construct: purchased Carna Biosciences
# Description: as §1, §2
# PKN1 = target: T18, PKN1 (Homo sapiens, UniProt Q16512)
# T18 construct: purchased Carna Biosciences
# Description: as §1, §2
# SIK = target: T19, SIK (Homo sapiens, UniProt P57059)
# T19 construct: purchased Carna Biosciences
# T19 sequence (P57059 whole entry): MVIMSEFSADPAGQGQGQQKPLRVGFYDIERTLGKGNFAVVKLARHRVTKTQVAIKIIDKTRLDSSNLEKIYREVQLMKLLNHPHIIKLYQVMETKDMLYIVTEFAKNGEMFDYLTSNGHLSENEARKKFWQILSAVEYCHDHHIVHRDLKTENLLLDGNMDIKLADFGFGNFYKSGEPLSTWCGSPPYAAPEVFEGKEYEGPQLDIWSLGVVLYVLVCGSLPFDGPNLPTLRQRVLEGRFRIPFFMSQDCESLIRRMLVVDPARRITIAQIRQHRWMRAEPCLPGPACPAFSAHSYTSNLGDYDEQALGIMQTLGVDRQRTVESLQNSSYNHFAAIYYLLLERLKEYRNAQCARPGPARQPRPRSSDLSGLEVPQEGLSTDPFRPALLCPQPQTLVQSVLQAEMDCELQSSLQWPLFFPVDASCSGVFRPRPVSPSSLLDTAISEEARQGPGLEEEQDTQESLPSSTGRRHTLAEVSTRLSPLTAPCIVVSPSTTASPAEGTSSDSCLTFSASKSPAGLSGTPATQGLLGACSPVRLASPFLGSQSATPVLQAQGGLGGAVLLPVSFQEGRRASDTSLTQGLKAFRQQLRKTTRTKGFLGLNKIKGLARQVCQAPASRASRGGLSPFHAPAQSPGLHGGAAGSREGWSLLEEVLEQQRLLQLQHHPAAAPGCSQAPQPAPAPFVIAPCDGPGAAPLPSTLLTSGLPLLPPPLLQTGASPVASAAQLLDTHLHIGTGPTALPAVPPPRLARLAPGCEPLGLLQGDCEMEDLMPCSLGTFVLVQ
# Description: as §1, §2
# EGFR(L858R) = target: T20, EGFR(L858R) (Homo sapiens, UniProt P00533, L858R)
# T20 construct: purchased Carna Biosciences
# Description: as §1, §2
# DAPK1 = target: T21, DAPK1 (Homo sapiens, UniProt P53355)
# T21 construct: purchased Carna Biosciences
# Description: as §1, §2
# CK1δ = target: T22, CK1δ (Homo sapiens, UniProt P48730)
# T22 construct: purchased Carna Biosciences
# Description: as §1, §2
# EGFR(L861Q) = target: T23, EGFR(L861Q) (Homo sapiens, UniProt P00533, L861Q)
# T23 construct: purchased Carna Biosciences
# Description: as §1, §2
# TXK = target: T24, TXK (Homo sapiens, UniProt P42681)
# T24 construct: purchased Carna Biosciences
# T24 sequence (P42681 whole entry): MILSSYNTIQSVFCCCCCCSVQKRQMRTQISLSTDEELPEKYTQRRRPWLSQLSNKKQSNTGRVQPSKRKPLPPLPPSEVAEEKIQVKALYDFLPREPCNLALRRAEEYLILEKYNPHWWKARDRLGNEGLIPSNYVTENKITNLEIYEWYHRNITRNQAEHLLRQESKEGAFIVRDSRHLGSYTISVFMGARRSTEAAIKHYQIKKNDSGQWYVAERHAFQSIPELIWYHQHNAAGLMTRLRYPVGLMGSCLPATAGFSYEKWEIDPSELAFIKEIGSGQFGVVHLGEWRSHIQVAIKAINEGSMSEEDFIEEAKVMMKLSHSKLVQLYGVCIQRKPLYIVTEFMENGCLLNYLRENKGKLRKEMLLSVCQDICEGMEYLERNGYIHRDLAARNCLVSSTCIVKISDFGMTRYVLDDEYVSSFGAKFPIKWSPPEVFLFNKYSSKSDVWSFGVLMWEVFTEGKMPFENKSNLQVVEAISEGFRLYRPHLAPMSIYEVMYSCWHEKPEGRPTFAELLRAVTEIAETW
# Description: as §1, §2
# BRSK2 = target: T25, BRSK2 (Homo sapiens, UniProt Q8IWQ3)
# T25 construct: purchased Carna Biosciences
# Description: as §1, §2
# MARK1 = target: T26, MARK1 (Homo sapiens, UniProt Q9P0L2)
# T26 construct: purchased Carna Biosciences
# Description: as §1, §2
# AurA/TPX2 = target: T27, AurA/TPX2 (Homo sapiens, UniProt O14965)
# T27 construct: purchased Carna Biosciences
# T27 sequence (O14965 whole entry): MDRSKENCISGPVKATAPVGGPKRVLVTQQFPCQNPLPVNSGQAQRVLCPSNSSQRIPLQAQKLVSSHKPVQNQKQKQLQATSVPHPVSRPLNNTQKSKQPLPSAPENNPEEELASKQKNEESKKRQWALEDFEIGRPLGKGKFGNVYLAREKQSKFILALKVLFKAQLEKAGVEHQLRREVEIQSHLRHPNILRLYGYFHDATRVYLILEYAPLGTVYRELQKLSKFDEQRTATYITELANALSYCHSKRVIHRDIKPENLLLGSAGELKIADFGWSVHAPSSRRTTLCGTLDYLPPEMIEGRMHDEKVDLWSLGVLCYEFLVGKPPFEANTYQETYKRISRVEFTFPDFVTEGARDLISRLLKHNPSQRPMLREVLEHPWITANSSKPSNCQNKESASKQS
# T27 sequence (Q9ULW0 1-43 partner limits assumed): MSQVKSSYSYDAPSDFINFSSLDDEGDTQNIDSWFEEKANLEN
# Description: as §1, §2
# CK1γ1 = target: T28, CK1γ1 (Homo sapiens, UniProt Q9HCP0)
# T28 construct: purchased Carna Biosciences
# Description: as §1, §2
# BLK = target: T29, BLK (Homo sapiens, UniProt P51451)
# T29 construct: purchased Carna Biosciences
# Description: as §1, §2
# TSSK3 = target: T30, TSSK3 (Homo sapiens, UniProt Q96PN8)
# T30 construct: purchased Carna Biosciences
# T30 sequence (Q96PN8 whole entry): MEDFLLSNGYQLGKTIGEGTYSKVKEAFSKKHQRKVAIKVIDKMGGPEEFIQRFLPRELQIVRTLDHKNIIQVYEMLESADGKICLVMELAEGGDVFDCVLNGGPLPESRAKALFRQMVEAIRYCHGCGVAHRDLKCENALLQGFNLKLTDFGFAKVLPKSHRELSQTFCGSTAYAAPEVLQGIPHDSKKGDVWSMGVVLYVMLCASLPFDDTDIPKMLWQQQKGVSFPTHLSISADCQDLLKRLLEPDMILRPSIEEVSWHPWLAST
# Description: as §1, §2
# AurA = target: T31, AurA (Homo sapiens, UniProt O14965)
# T31 construct: purchased Carna Biosciences
# T31 sequence (O14965 whole entry): as the sequence (O14965 whole entry) above
# Description: as §1, §2
# TSSK1 = target: T32, TSSK1 (Homo sapiens, UniProt Q9BXA7)
# T32 construct: purchased Carna Biosciences
# T32 sequence (Q9BXA7 whole entry): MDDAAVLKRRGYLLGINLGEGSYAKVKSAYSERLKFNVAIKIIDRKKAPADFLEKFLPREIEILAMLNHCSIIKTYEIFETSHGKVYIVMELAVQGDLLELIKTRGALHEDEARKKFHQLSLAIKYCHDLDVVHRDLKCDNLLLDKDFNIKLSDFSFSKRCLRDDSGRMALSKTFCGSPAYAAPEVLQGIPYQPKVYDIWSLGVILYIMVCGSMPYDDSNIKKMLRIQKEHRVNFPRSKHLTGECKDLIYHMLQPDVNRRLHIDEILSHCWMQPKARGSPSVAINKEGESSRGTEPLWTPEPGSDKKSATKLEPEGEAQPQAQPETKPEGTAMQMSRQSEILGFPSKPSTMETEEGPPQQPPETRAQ
# Description: as §1, §2
# HIPK1 = target: T33, HIPK1 (Homo sapiens, UniProt Q86Z02)
# T33 construct: purchased Carna Biosciences
# Description: as §1, §2
# SPHK2 = target: T34, SPHK2 (Homo sapiens, UniProt Q9NRA0)
# T34 construct: purchased Carna Biosciences
# Description: as §1, §2
# KIT(V654A) = target: T35, KIT(V654A) (Homo sapiens, UniProt P10721, V654A)
# T35 construct: purchased Carna Biosciences
# Description: as §1, §2
# TSSK2 = target: T36, TSSK2 (Homo sapiens, UniProt Q96PF2)
# T36 construct: purchased Carna Biosciences
# Description: as §1, §2
compound,measurement,setting,value
"[H]/N=C1/NC(=O)C(=Cc2ccc3c(c2)CCO3)S1 [CaNDY, (Z)-5-[(2,3-dihydrobenzofuran-5-yl)methylene]-2-iminothiazolidin-4-one]",%Activity,CDK2/CycA2,86.3%
same,remaining activity at 1 µM,p38δ,74.8%
same,remaining activity at 1 µM,PDGFRα,84.1%
same,remaining activity at 1 µM,JAK3,94.2%
same,remaining activity at 1 µM,FGFR3(K650M),101%
same,%Activity,PKR,95.4%
same,remaining activity at 1 µM,CDK4/CycD3,86.4%
same,remaining activity at 1 µM,NEK6,96.1%
same,remaining activity at 1 µM,LCK,99%
same,remaining activity at 1 µM,RET(Y791F),100%
same,remaining activity at 1 µM,MAP3K3_Cascade,104%
same,remaining activity at 1 µM,MER,102%
same,remaining activity at 1 µM,SPHK1,83.5%
same,remaining activity at 1 µM,PKD2,83.3%
same,remaining activity at 1 µM,CDC2/CycB1,65.7%
same,remaining activity at 1 µM,SRC,102%
same,remaining activity at 1 µM,SGK2,88.6%
same,remaining activity at 1 µM,PKN1,74.6%
same,%Activity,SIK,99.9%
same,%Activity,EGFR(L858R),105.7%
same,remaining activity at 1 µM,DAPK1,80.6%
same,remaining activity at 1 µM,CK1δ,67.9%
same,%Activity,EGFR(L861Q),103.3%
same,remaining activity at 1 µM,TXK,96.8%
same,remaining activity at 1 µM,BRSK2,97.8%
same,remaining activity at 1 µM,MARK1,94.4%
same,remaining activity at 1 µM,AurA/TPX2,98.8%
same,%Activity,CK1γ1,83.4%
same,remaining activity at 1 µM,BLK,101%
same,remaining activity at 1 µM,TSSK3,110%
same,remaining activity at 1 µM,AurA,114%
same,remaining activity at 1 µM,TSSK1,94.5%
same,remaining activity at 1 µM,HIPK1,30.9%
same,remaining activity at 1 µM,SPHK2,92.3%
same,remaining activity at 1 µM,KIT(V654A),98.5%
same,remaining activity at 1 µM,TSSK2,102%

# Reference: publication PMC4522657, “Identification of a DYRK1A Inhibitor that Induces Degradation of the Target Kinase using Co-chaperone CDC37 fused with Luciferase nanoKAZ” (Scientific Reports, 2015)
